Results published in ChEMBL document CHEMBL1201862, “PubChem BioAssay data set” (2004).
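Exposure lasted 48 hours, with cells grown in 96-well plates and compounds tested at five concentrations. Here, GI50 denotes the concentration required for 50% inhibition of growth.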 Calls of active or inactive are those of the source. Rule as the data show it: active = GI50 up to about 1.1 µM and inactive = higher.

Tests used:
Experiment in all cases: growth of human tumour cells (NCI), 48 h
HT-29 = tested on: HT-29
SF-268 = tested on: SF-268
EKVX = tested on: EKVX
OVCAR-5 = tested on: OVCAR-5
RPMI-8226 = tested on: RPMI-8226
SW-620 = tested on: SW-620
SNB-75 = tested on: SNB-75
LOX IMVI = tested on: LOX IMVI
NCI-H226 = tested on: NCI-H226
SK-MEL-5 = tested on: SK-MEL-5
HL-60 = tested on: HL-60
SK-MEL-2 = tested on: SK-MEL-2
HCC 2998 = tested on: HCC 2998
DLD-1 = tested on: DLD-1
TK-10 = tested on: TK-10
NCI-H460 = tested on: NCI-H460

SMILES	GI50 (HT-29)	GI50 (SF-268)	GI50 (EKVX)	GI50 (OVCAR-5)	GI50 (RPMI-8226)	GI50 (SW-620)	GI50 (SNB-75)	GI50 (LOX IMVI)	GI50 (NCI-H226)	GI50 (SK-MEL-5)	GI50 (HL-60)	GI50 (SK-MEL-2)	GI50 (HCC 2998)	GI50 (DLD-1)	GI50 (TK-10)	GI50 (NCI-H460)
CC1/C=C/[C@@]2(C)CCC(C(C)(C)O)C2C(O)C[C@](C)(O)/C=C/C1 (some centres not stated)	> 100 µM (inactive)	> 100 µM (inactive)	> 100 µM (inactive)	> 100 µM (inactive)	> 100 µM (inactive)	> 100 µM (inactive)	> 100 µM (inactive)	> 100 µM (inactive)	7.31 µM (inactive)	> 100 µM (inactive)	86.1 µM (inactive)	> 100 µM (inactive)	> 100 µM (inactive)	> 100 µM (inactive)	> 100 µM (inactive)	> 100 µM (inactive)
CCOC(=O)C1C(=O)c2cccc(OC)c2C2COC(=O)N12 (configuration not stated)	> 100 µM (inactive)	> 100 µM (inactive)	> 100 µM (inactive)	> 100 µM (inactive)	> 100 µM (inactive)	> 100 µM (inactive)	> 100 µM (inactive)	> 100 µM (inactive)	> 100 µM (inactive)	> 100 µM (inactive)	> 100 µM (inactive)	> 100 µM (inactive)	> 100 µM (inactive)	> 100 µM (inactive)	> 100 µM (inactive)	> 100 µM (inactive)
Cc1ccc(NC(=O)C(=O)C(C(=O)/C=C/c2ccccc2)C2OC(=O)c3ccccc32)c(C)c1 (configuration not stated)	> 100 µM (inactive)	> 100 µM (inactive)	> 100 µM (inactive)	> 100 µM (inactive)	60.4 µM (inactive)	> 100 µM (inactive)	> 100 µM (inactive)	> 100 µM (inactive)	> 100 µM (inactive)	> 100 µM (inactive)	> 100 µM (inactive)	–	> 100 µM (inactive)	> 100 µM (inactive)	> 100 µM (inactive)	> 100 µM (inactive)
COc1ccc2oc(-c3ccc(OC)c(OC)c3OC)cc(=O)c2c1	48.2 µM (inactive)	36.4 µM (inactive)	33.1 µM (inactive)	28.4 µM (inactive)	17 µM (inactive)	65.2 µM (inactive)	48.3 µM (inactive)	46.8 µM (inactive)	10.5 µM (inactive)	–	18.6 µM (inactive)	22.9 µM (inactive)	52.7 µM (inactive)	49.7 µM (inactive)	36.3 µM (inactive)	–
CCOc1ccccc1NC(=O)C(=O)C(C(=O)c1ccc2ccccc2c1)C1OC(=O)c2ccccc21 (configuration not stated)	28.6 µM (inactive)	5.86 µM (inactive)	22.2 µM (inactive)	21.2 µM (inactive)	6.08 µM (inactive)	6.31 µM (inactive)	8.77 µM (inactive)	12.5 µM (inactive)	1.82 µM (inactive)	10.6 µM (inactive)	10 µM (inactive)	13.2 µM (inactive)	10.7 µM (inactive)	15.2 µM (inactive)	24.4 µM (inactive)	6.68 µM (inactive)
COc1ccc2c(c1)C1C(CO2)C(c2ccccc2)=NN1c1ccccc1 (configuration not stated)	> 100 µM (inactive)	89.3 µM (inactive)	> 100 µM (inactive)	> 100 µM (inactive)	48.1 µM (inactive)	> 100 µM (inactive)	0.441 µM (active)	> 100 µM (inactive)	–	> 100 µM (inactive)	99.5 µM (inactive)	> 100 µM (inactive)	> 100 µM (inactive)	> 100 µM (inactive)	> 100 µM (inactive)	> 100 µM (inactive)
